Test results reported in patent publication US20180093956A1, “SUBSTITUTED PHTHALAZINES” (AbbVie Inc., priority 2015, published 2018).

These compounds were tested against SUV420H1 enzyme (Homo sapiens, UniProt Q4FZB7) (assay: TR-FRET SAH SUV420H1 enzyme inhibition assay). Details: Histone Peptide H4(8-30)me1 and SAM, TR-FRET detection of SAH, read-out: TR-FRET SAH_SUV420H1 IC50.
Assay type: biochemical
Protocol: Test compounds were dispensed by a Labcyte Echo in 384-well low volume assay plates with 3-fold serial dilutions from 50 μM to 0.00075 μM. 5 μL of SUV420H1 enzyme (Abbvie) at 90 nM was added to all wells except for the no enzyme control wells and incubated for 30 minutes at room temperature before 5 μL of Histone Peptide H4(8-30)me1 (Anaspec) at 5 μM and SAM at 4 μM was added to all wells. The plates were incubated in a humidified chamber overnight at room temp and then 10 μL of the detection reagent that contained RIPA buffer (50 mM Tris-HCl, pH 8.0, 150 mM sodium chloride, 1.0% Igepal CA-630 (NP-40), 0.5% sodium deoxycholate and 0.1% sodium dodecyl sulfate) (Sigma) with 2 nM of Terbium chelate anti S-adenosyl-L-homocysteine (SAH) (Abbvie) antibody and Oregon Green labeled SAH at 4 nM was added. The plates were further incubated for 4 hours at room temperature. The plates were read in a Perkin Elmer Envision using a TR-FRET protocol with Excitation set at 335 nm and Emission at 520 and 495 nm. To generate dose response curves the data is normalized to percent inhibition by setting the average of the plus and minus enzyme control wells to 0% and 100% inhibition respectively. The ICso values for the compounds are generated by fitting the normalized data with Accelrys Assay Explorer 3.3 to a sigmoidal curve model using […], Y=(100*x^n)/(K^n+x^n), where Y is the measured response, x is the compound concentration, n is the Hill Slope and K is the IC50 and the lower and higher asymptotes are constrained to 0 and 100 respectively.

Sequence of SUV420H1 enzyme (Q4FZB7 whole entry): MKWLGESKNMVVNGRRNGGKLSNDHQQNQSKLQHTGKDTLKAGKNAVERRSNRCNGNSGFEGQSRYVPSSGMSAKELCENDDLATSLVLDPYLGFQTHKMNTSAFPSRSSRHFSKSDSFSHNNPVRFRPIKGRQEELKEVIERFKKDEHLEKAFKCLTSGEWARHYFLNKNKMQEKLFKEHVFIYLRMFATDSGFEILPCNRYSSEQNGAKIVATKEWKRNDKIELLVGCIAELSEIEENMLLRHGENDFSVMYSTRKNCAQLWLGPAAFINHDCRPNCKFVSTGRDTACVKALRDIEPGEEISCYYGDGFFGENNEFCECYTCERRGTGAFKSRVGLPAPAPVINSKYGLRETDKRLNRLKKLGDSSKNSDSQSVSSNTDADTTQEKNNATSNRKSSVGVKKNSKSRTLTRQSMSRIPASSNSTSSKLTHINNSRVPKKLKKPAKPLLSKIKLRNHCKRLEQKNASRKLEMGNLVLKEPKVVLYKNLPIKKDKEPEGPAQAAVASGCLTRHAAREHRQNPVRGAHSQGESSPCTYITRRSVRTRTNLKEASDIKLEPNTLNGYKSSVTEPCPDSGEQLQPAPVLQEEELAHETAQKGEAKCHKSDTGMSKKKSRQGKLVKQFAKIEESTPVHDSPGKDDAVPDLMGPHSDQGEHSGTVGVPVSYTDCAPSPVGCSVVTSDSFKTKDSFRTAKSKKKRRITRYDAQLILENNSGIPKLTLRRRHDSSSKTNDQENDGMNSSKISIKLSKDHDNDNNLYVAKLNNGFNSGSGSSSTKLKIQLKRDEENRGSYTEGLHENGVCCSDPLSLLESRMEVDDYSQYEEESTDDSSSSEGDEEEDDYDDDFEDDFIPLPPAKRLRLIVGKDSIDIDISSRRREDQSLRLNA

IC50 [nM]	Compound
827	Fc1cc(-c2nnc(NC3CCCC3)c3cc(Cl)c(Cl)cc23)ccn1 [Example 12, 6,7-dichloro-N-cyclopentyl-4-(2-fluoropyridin-4-yl)phthalazin-1-amine]
551	O=C(Cn1cc(-c2nnc(NC3CCCC3)c3cc(Cl)c(Cl)cc23)cn1)N1CCOCC1 [Example 65, 2-{4-[6,7-dichloro-4-(cyclopentylamino)phthalazin-1-yl]-1H-pyrazol-1-yl}-1-(morpholin-4-yl)ethanone]
1100	CC(=O)N1CC=C(c2nnc(NC3CCCC3)c3cc(Cl)c(Cl)cc23)CC1 [Example 25, 1-{4-[6,7-dichloro-4-(cyclopentylamino)phthalazin-1-yl]-3,6-dihydropyridin-1(2H)-yl}ethanone]
572	OC1CCN(c2ccc(-c3nnc(NC4CCCC4)c4cc(Cl)c(Cl)cc34)cn2)CC1 [Example 28, 1-{5-[6,7-dichloro-4-(cyclopentylamino)phthalazin-1-yl]pyridin-2-yl}piperidin-4-ol]
5060	O=C(c1nnc(NC2CCCC2)c2cc(Cl)c(Cl)cc12)N1CCS(=O)(=O)CC1 [Example 50, [6,7-dichloro-4-(cyclopentylamino)phthalazin-1-yl](1,1-dioxidothiomorpholin-4-yl)methanone]
> 50000	Clc1cc2c(NC3CCCC3)nnc(N3CCCC3)c2cc1Cl [Example 11, 6,7-dichloro-N-cyclopentyl-4-(pyrrolidin-1-yl)phthalazin-1-amine]
19100	Clc1cc2c(NC3CCCC3)nnc(-c3ccc(CN4CCOCC4)cc3)c2cc1Cl [Example 14, 6,7-dichloro-N-cyclopentyl-4-[4-(morpholin-4-ylmethyl)phenyl]phthalazin-1-amine]
6010	O=C(Cn1cc(-c2nnc(NC3CCCC3)c3cc(Cl)c(Cl)cc23)cn1)N1CCCC1 [Example 58, 2-{4-[6,7-dichloro-4-(cyclopentylamino)phthalazin-1-yl]-1H-pyrazol-1-yl}-1-(pyrrolidin-1-yl)ethanone]
1320	Clc1cc2c(NC3CCCC3)nnc(-c3ccc(N4CCNCC4)nc3)c2cc1Cl [Example 27, 6,7-dichloro-N-cyclopentyl-4-[6-(piperazin-1-yl)pyridin-3-yl]phthalazin-1-amine]
255	O=C(O)Cn1cc(-c2nnc(NC3CCCC3)c3cc(Cl)c(Cl)cc23)cn1 [Example 44, {4-[6,7-dichloro-4-(cyclopentylamino)phthalazin-1-yl]-1H-pyrazol-1-yl}acetic acid]
805	O=S1(=O)CCN(c2ccc(-c3nnc(NC4CCCC4)c4cc(Cl)c(Cl)cc34)cn2)CC1 [Example 41, 6,7-dichloro-N-cyclopentyl-4-[6-(1,1-dioxidothiomorpholin-4-yl)pyridin-3-yl]phthalazin-1-amine]
448	CS(=O)(=O)N1CC=C(c2nnc(NC3CCCC3)c3cc(Cl)c(Cl)cc23)CC1 [Example 67, 6,7-dichloro-N-cyclopentyl-4-[1-(methylsulfonyl)-1,2,3,6-tetrahydropyridin-4-yl]phthalazin-1-amine]
766	O=C(Cn1cc(-c2nnc(NC3CCCC3)c3cc(Cl)c(Cl)cc23)cn1)N1CCC(O)C1 (stereo not drawn) [Example 59, 2-{4-[6,7-dichloro-4-(cyclopentylamino)phthalazin-1-yl]-1H-pyrazol-1-yl}-1-(3-hydroxypyrrolidin-1-yl)ethanone]
2730	OC1CCN(c2ccc(-c3nnc(NC4CCCC4)c4cc(Cl)c(Cl)cc34)cn2)C1 (stereo not drawn) [Example 34, 1-{5-[6,7-dichloro-4-(cyclopentylamino)phthalazin-1-yl]pyridin-2-yl}pyrrolidin-3-ol]
688	O=C(C1CCC(O)C1)N1CC=C(c2nnc(NC3CCCC3)c3cc(Cl)c(Cl)cc23)CC1 (stereo not drawn) [Example 84, {4-[6,7-dichloro-4-(cyclopentylamino)phthalazin-1-yl]-3,6-dihydropyridin-1(2H)-yl}(3-hydroxycyclopentyl)methanone]
2630	O[C@@H]1CC[C@H](Nc2nnc(Cl)c3cc(Cl)c(Cl)cc23)C1 (racemic) [Example 13, rac-(1R,3S)-3-[(4,6,7-trichlorophthalazin-1-yl)amino]cyclopentanol]
1010	Clc1cc2c(NC3CCCC3)nnc(-c3ccc(N4CCOCC4)nc3)c2cc1Cl [Example 22, 6,7-dichloro-N-cyclopentyl-4-[6-(morpholin-4-yl)pyridin-3-yl]phthalazin-1-amine]
8210	O=C(c1nnc(NC2CCCC2)c2cc(Cl)c(Cl)cc12)N1CCOCC1 [Example 51, [6,7-dichloro-4-(cyclopentylamino)phthalazin-1-yl](morpholin-4-yl)methanone]

IC50 [nM]	Compound
1460	CN1CCN(c2ccc(-c3nnc(NC4CCCC4)c4cc(Cl)c(Cl)cc34)cn2)CC1 [Example 21, 6,7-dichloro-N-cyclopentyl-4-[6-(4-methylpiperazin-1-yl)pyridin-3-yl]phthalazin-1-amine]
808	CN(CCO)c1cc(-c2nnc(NC3CCCC3)c3cc(Cl)c(Cl)cc23)ccn1 [Example 35, 2-[{4-[6,7-dichloro-4-(cyclopentylamino)phthalazin-1-yl]pyridin-2-yl}(methyl)amino]ethanol]
1240	NC1CCN(c2ccc(-c3nnc(NC4CCCC4)c4cc(Cl)c(Cl)cc34)cn2)C1 (stereo not drawn) [Example 33, 4-[6-(3-aminopyrrolidin-1-yl)pyridin-3-yl]-6,7-dichloro-N-cyclopentylphthalazin-1-amine]
453	O=S(=O)(C1CC1)N1CC=C(c2nnc(NC3CCCC3)c3cc(Cl)c(Cl)cc23)CC1 [Example 68, 6,7-dichloro-N-cyclopentyl-4-[1-(cyclopropylsulfonyl)-1,2,3,6-tetrahydropyridin-4-yl]phthalazin-1-amine]
48400	Clc1cc2c(NC3CCCC3)nnc(N3CCOCC3)c2cc1Cl [Example 10, 6,7-dichloro-N-cyclopentyl-4-(morpholin-4-yl)phthalazin-1-amine]
> 50000	Clc1cc2c(NC3CCCC3)nnc(-c3ccnc(N4CCCC4)c3)c2cc1Cl [Example 15, 6,7-dichloro-N-cyclopentyl-4-[2-(pyrrolidin-1-yl)pyridin-4-yl]phthalazin-1-amine]
7380	Clc1cc2c(NC3CCCC3)nnc(-c3ccnc(N4CCOCC4)c3)c2cc1Cl [Example 17, 6,7-dichloro-N-cyclopentyl-4-[2-(morpholin-4-yl)pyridin-4-yl]phthalazin-1-amine]
1340	O=C(Nc1ccccc1)c1nnc(NC2CCCC2)c2cc(Cl)c(Cl)cc12 [Example 53, 6,7-dichloro-4-(cyclopentylamino)-N-phenylphthalazine-1-carboxamide]
28900	Clc1cc2c(NC3CCCC3)nnc(-c3ccccc3)c2cc1Cl [Example 2, 6,7-dichloro-N-cyclopentyl-4-phenylphthalazin-1-amine]
12800	O=C(c1nnc(NC2CCCC2)c2cc(Cl)c(Cl)cc12)N1CCC(O)CC1 [Example 52, [6,7-dichloro-4-(cyclopentylamino)phthalazin-1-yl](4-hydroxypiperidin-1-yl)methanone]
681	CS(=O)(=O)CC(=O)N1CC=C(c2nnc(NC3CCCC3)c3cc(Cl)c(Cl)cc23)CC1 [Example 82, 1-{4-[6,7-dichloro-4-(cyclopentylamino)phthalazin-1-yl]-3,6-dihydropyridin-1(2H)-yl}-2-(methylsulfonyl)ethanone]
816	NC(=O)CC(=O)N1CC=C(c2nnc(NC3CCCC3)c3cc(Cl)c(Cl)cc23)CC1 [Example 83, 3-{4-[6,7-dichloro-4-(cyclopentylamino)phthalazin-1-yl]-3,6-dihydropyridin-1(2H)-yl}-3-oxopropanamide]
8350	CN1CCN(c2cc(-c3nnc(NC4CCCC4)c4cc(Cl)c(Cl)cc34)ccn2)CC1 [Example 16, 6,7-dichloro-N-cyclopentyl-4-[2-(4-methylpiperazin-1-yl)pyridin-4-yl]phthalazin-1-amine]
197	CCNC(=O)c1nnc(NC2CCCC2)c2cc(Cl)c(Cl)cc12 [Example 45, 6,7-dichloro-4-(cyclopentylamino)-N-ethylphthalazine-1-carboxamide]
2350	O=S(=O)(c1ccccc1)N1CC=C(c2nnc(NC3CCCC3)c3cc(Cl)c(Cl)cc23)CC1 [Example 69, 6,7-dichloro-N-cyclopentyl-4-[1-(phenylsulfonyl)-1,2,3,6-tetrahydropyridin-4-yl]phthalazin-1-amine]
3490	OCCNc1cc(-c2nnc(NC3CCCC3)c3cc(Cl)c(Cl)cc23)ccn1 [Example 39, 2-({4-[6,7-dichloro-4-(cyclopentylamino)phthalazin-1-yl]pyridin-2-yl}amino)ethanol]
11200	CN(C)c1cc(-c2nnc(NC3CCCC3)c3cc(Cl)c(Cl)cc23)ccn1 [Example 32, 6,7-dichloro-N-cyclopentyl-4-[2-(dimethylamino)pyridin-4-yl]phthalazin-1-amine]
1280	Clc1cc2c(NC3CCCC3)nnc(C3=CCNCC3)c2cc1Cl [Example 24, 6,7-dichloro-N-cyclopentyl-4-(1,2,3,6-tetrahydropyridin-4-yl)phthalazin-1-amine]
